Molecules are shown by their SMILES.

This assay concerns the target T1, BRD4 BD2 (Homo sapiens, UniProt O60885, Y97A).
T1 construct: BRD4 (1-477) (Y97A) and (Y390A); made in house; host or cells: E. coli (pET15b vector)
The experiment in a line: TR-FRET binding assay, BRD4 BD2 (BD1-mutated protein). The following applies: read-out: pIC50 in the BRD4 BD2 assay (converted). A digest of the protocol: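 Displacement of Alexa Fluor647-labelled bromodomain ligand (at Kd) from 10 nM His-tagged BRD4 (1-477, Y97A) read by Eu-anti-His TR-FRET (665/615 ratio) in pH 7.4 HEPES buffer, 0.5% DMSO. Compound preincubated 30 min at rt, detection ≥30 min. pIC50 derived from four-parameter fit after normalisation to controls.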
Background: Time-resolved FRET reads energy transfer from a long-lived donor to a nearby acceptor.
As to `CC(=O)N1c2ccc(C#N)cc2[C@H](Nc2cccc(CN(C)C)n2)[C@@H](C)[C@@H]1C1CC1` [Example 298, (2S,3R,4R)-1-acetyl-2-cyclopropyl-4-((6-((dimethylamino)methyl)pyridin-2-yl)amino)-3-methyl-1,2,3,4-tetrahydroquinoline-6-carbonitrile], the IC50 is 1000 to 100000 nM.

For the molecule `CC(=O)N1c2ccc(C#N)cc2[C@H](Nc2ncccc2C(N)=O)[C@@H](C)[C@@H]1C1CC1` [Example 314, 2-(((2S,3R,4R)-1-acetyl-6-cyano-2-cyclopropyl-3-methyl-1,2,3,4-tetrahydroquinolin-4-yl)amino)nicotinamide], the IC50 is 100 nM.

On to `CC(=O)N1c2ccc(C#N)cc2[C@H](Nc2cccc(C(N)=O)n2)[C@@H](C)[C@@H]1C1CC1` [Example 316, 6-(((2S,3R,4R)-1-acetyl-6-cyano-2-cyclopropyl-3-methyl-1,2,3,4-tetrahydroquinolin-4-yl)amino)picolinamide], for which the IC50 was 1000 to 100000 nM.

Turning to `CC(=O)N1c2ccc(C#N)cc2[C@H](Nc2cccc(OCCN)n2)[C@@H](C)[C@@H]1C1CC1` [Example 318, (2S,3R,4R)-1-acetyl-4-((6-(2-aminoethoxy)pyridin-2-yl)amino)-2-cyclopropyl-3-methyl-1,2,3,4-tetrahydroquinoline-6-carbonitrile], the IC50 was 100 nM.

Consider `CC[C@H]1[C@H](C)[C@@H](Nc2ccc(C#N)cc2)c2cc(C(=O)O)ccc2N1C(C)=O` [Example 331, (2S,3R,4R)-1-acetyl-4-((4-cyanophenyl)amino)-2-ethyl-3-methyl-1,2,3,4-tetrahydroquinoline-6-carboxylic acid], for which the IC50 is 100 nM.

Turning to `CC(=O)N1c2ccc(C(=O)O)cc2[C@H](Nc2ccc(S(C)(=O)=O)cc2)[C@@H](C)[C@@H]1C1CC1` [Example 332, (2S,3R,4)-1-acetyl-2-cyclopropyl-3-methyl-4-((4-(methylsulfonyl)phenyl)amino)-1,2,3,4-tetrahydroquinoline-6-carboxylic acid], the IC50 is 1000 to 100000 nM.

For `COc1cnc(N[C@H]2c3cc(C(N)=O)ccc3N(C(C)=O)[C@@H](C3CC3)[C@@H]2C)nc1C` [Example 348, (2S,3R,4R)-1-acetyl-2-cyclopropyl-4-((5-methoxy-4-methylpyrimidin-2-yl)amino)-3-methyl-1,2,3,4-tetrahydroquinoline-6-carboxamide], the IC50 was 1000 to 100000 nM.

On to `CC(=O)N1c2ccc(C(N)=O)cc2[C@H](Nc2cccc(CO)n2)[C@@H](C)[C@@H]1C1CC1` [Example 350, (2S,3R,4R)-1-acetyl-2-cyclopropyl-4-((6-(hydroxymethyl)pyridin-2-yl)amino)-3-methyl-1,2,3,4-tetrahydroquinoline-6-carboxamide], for which the IC50 is 100 nM.

For the molecule `CC(=O)N1c2ccc(C(N)=O)cc2[C@H](Nc2cccc(F)c2)[C@@H](C)[C@@H]1C1CC1` [Example 359, (2S,3R,4R)-1-acetyl-2-cyclopropyl-4-((3-fluorophenyl)amino)-3-methyl-1,2,3,4-tetrahydroquinoline-6-carboxamide], the IC50 is 100 nM.

In the case of `COc1cccc(N[C@H]2c3cc(C(N)=O)ccc3N(C(C)=O)[C@@H](C3CC3)[C@@H]2C)c1` [Example 360, (2S,3R,4R)-1-acetyl-2-cyclopropyl-4-((3-methoxyphenyl)amino)-3-methyl-1,2,3,4-tetrahydroquinoline-6-carboxamide], the IC50 is 100 nM.

Consider `CC(=O)N1c2ccc(C(N)=O)cc2[C@H](Nc2ccc(C#N)cc2)[C@@H](C)[C@@H]1C1CC1` [Example 378, (2S,3R,4R)-1-acetyl-4-((4-cyanophenyl)amino)-2-cyclopropyl-3-methyl-1,2,3,4-tetrahydroquinoline-6-carboxamide], for which the IC50 was 100 nM.

With `CC(=O)N1c2ccc(C(N)=O)cc2[C@H](Nc2ccc(Cl)cn2)[C@@H](C)[C@@H]1C1CC1` [Example 379, (2S,3R,4R)-1-acetyl-4-((5-chloropyridin-2-yl)amino)-2-cyclopropyl-3-methyl-1,2,3,4-tetrahydroquinoline-6-carboxamide], the IC50 was 100 nM.

`CC(=O)N1c2ccc(C(N)=O)cc2[C@H](Nc2nccc(N(C)C)n2)[C@@H](C)[C@@H]1C1CC1` [Example 387, (2S,3R,4R)-1-acetyl-2-cyclopropyl-4-((4-(dimethylamino)pyrimidin-2-yl)amino)-3-methyl-1,2,3,4-tetrahydroquinoline-6-carboxamide]: the IC50 is 1000 to 100000 nM.

Consider `COc1cc(C#N)ccc1N[C@H]1c2cc(C(N)=O)ccc2N(C(C)=O)[C@@H](C2CC2)[C@@H]1C` [Example 390, (2S,3R,4R)-1-acetyl-4-((4-cyano-2-methoxyphenyl)amino)-2-cyclopropyl-3-methyl-1,2,3,4-tetrahydroquinoline-6-carboxamide], for which the IC50 was 100 nM.

Consider `CC(=O)N1c2ccc(C(N)=O)cc2[C@H](Nc2cnc(C#N)c(Cl)c2)[C@@H](C)[C@@H]1C1CC1` [Example 391, (2S,3R,4R)-1-acetyl-4-((5-chloro-6-cyanopyridin-3-yl)amino)-2-cyclopropyl-3-methyl-1,2,3,4-tetrahydroquinoline-6-carboxamide], for which the IC50 was 1000 to 100000 nM.

As for `COc1ccc(N[C@H]2c3cc(C(N)=O)ccc3N(C(C)=O)[C@@H](C3CC3)[C@@H]2C)c(C#N)c1` [Example 392, (2S,3R,4R)-1-acetyl-4-((2-cyano-4-methoxyphenyl)amino)-2-cyclopropyl-3-methyl-1,2,3,4-tetrahydroquinoline-6-carboxamide], the IC50 is 100 nM.

For `CC(=O)N1c2ccc(C(N)=O)cc2[C@H](Nc2ncccn2)[C@@H](C)[C@@H]1C1CC1` [Example 399, (2S,3R,4R)-1-acetyl-2-cyclopropyl-3-methyl-4-(pyrimidin-2-ylamino)-1,2,3,4-tetrahydroquinoline-6-carboxamide], the IC50 was 100 nM.

With `CC(=O)N1c2ccc(C(N)=O)cc2[C@H](Nc2ccc(C#N)cn2)[C@@H](C)[C@@H]1C1CC1` [Example 400, (2S,3R,4R)-1-acetyl-4-((5-cyanopyridin-2-yl)amino)-2-cyclopropyl-3-methyl-1,2,3,4-tetrahydroquinoline-6-carboxamide], the IC50 is 100 nM.

For `CC(=O)N1c2ccc(C(N)=O)cc2[C@H](Nc2ncc(Cl)cn2)[C@@H](C)[C@@H]1C1CC1` [Example 403, (2S,3R,4R)-1-acetyl-4-((5-chloropyrimidin-2-yl)amino)-2-cyclopropyl-3-methyl-1,2,3,4-tetrahydroquinoline-6-carboxamide], the IC50 was 100 nM.

`CCc1ccnc(N[C@H]2c3cc(C(N)=O)ccc3N(C(C)=O)[C@@H](C3CC3)[C@@H]2C)n1` [Example 407, (2S,3R,4R)-1-acetyl-2-cyclopropyl-4-((4-ethylpyrimidin-2-yl)amino)-3-methyl-1,2,3,4-tetrahydroquinoline-6-carboxamide]: the IC50 is 100 nM.

For the molecule `CC(=O)N1c2ccc(C(N)=O)cc2[C@H](Nc2nc(C)cc(C)n2)[C@@H](C)[C@@H]1C1CC1` [Example 408, (2S,3R,4R)-1-acetyl-2-cyclopropyl-4-((4,6-dimethylpyrimidin-2-yl)amino)-3-methyl-1,2,3,4-tetrahydroquinoline-6-carboxamide], the IC50 was 1000 to 100000 nM.

Take `CC(=O)N1c2ccc(C(N)=O)cc2[C@H](Nc2nccc(C(C)C)n2)[C@@H](C)[C@@H]1C1CC1` [Example 411, (2S,3R,4R)-1-acetyl-2-cyclopropyl-4-((4-isopropylpyrimidin-2-yl)amino)-3-methyl-1,2,3,4-tetrahydroquinoline-6-carboxamide]: the IC50 was 100 nM.

Consider `CC(=O)N1c2ccc(C(N)=O)cc2[C@H](Nc2nccc(C3=CCOCC3)n2)[C@@H](C)[C@@H]1C1CC1` [Example 413], for which the IC50 is 100 nM.

With `CC(=O)N1c2ccc(C(N)=O)cc2[C@H](Nc2ncccc2C(N)=O)[C@@H](C)[C@@H]1C1CC1` [Example 418, (2S,3R,4R)-1-acetyl-4-((3-carbamoylpyridin-2-yl)amino)-2-cyclopropyl-3-methyl-1,2,3,4-tetrahydroquinoline-6-carboxamide], the IC50 was 100 nM.

For `Cc1ccnc(N[C@H]2c3cc(C(N)=O)ccc3N(C(=O)C(C)C)[C@@H](C3CC3)[C@@H]2C)n1` [Example 422, (2S,3R,4R)-2-cyclopropyl-1-isobutyryl-3-methyl-4-((4-methylpyrimidin-2-yl)amino)-1,2,3,4-tetrahydroquinoline-6-carboxamide], the IC50 is 1000 to 100000 nM.

As for `CC(=O)N1c2ccc(C(=O)NCCO)cc2[C@H](Nc2ncc(F)c(C)n2)[C@@H](C)[C@@H]1C` [Example 430, (2S,3R,4R)-1-acetyl-4-((5-fluoro-4-methylpyrimidin-2-yl)amino)-N-(2-hydroxyethyl)-2,3-dimethyl-1,2,3,4-tetrahydroquinoline-6-carboxamide], the IC50 was 100 nM.

Turning to `CC(=O)N1c2ccc(C(=O)NCCO)cc2[C@H](Nc2ccc(F)c(C)n2)[C@@H](C)[C@@H]1C` [Example 433, (2S,3R,4R)-1-acetyl-4-((5-fluoro-6-methylpyridin-2-yl)amino)-N-(2-hydroxyethyl)-2,3-dimethyl-1,2,3,4-tetrahydroquinoline-6-carboxamide], the IC50 was 100 nM.

As to `CC(=O)N1c2ccc(C(=O)NCCO)cc2[C@H](Nc2ccnc(C)n2)[C@@H](C)[C@@H]1C1CC1` [Example 441, (2S,3R,4R)-1-acetyl-2-cyclopropyl-N-(2-hydroxyethyl)-3-methyl-4-((2-methylpyrimidin-4-yl)amino)-1,2,3,4-tetrahydroquinoline-6-carboxamide], the IC50 was 1000 to 100000 nM.

`CC(=O)N1c2ccc(C(=O)NC3CCOCC3)cc2[C@H](Nc2ccc(F)cn2)[C@@H](C)[C@@H]1C1CC1` [Example 469, (2S,3R,4R)-1-acetyl-2-cyclopropyl-4-((5-fluoropyridin-2-yl)amino)-3-methyl-N-(tetrahydro-2H-pyran-4-yl)-1,2,3,4-tetrahydroquinoline-6-carboxamide]: the IC50 is 100 nM.

Source of the values: patent US11478478B2, “2,3-disubstituted 1-acyl-4-amino-1,2,3,4-tetrahydroquinoline derivatives and their use as bromodomain inhibitors” (GLAXOSMITHKLINE INTELLECTUAL PROPERTY (NO.2) LIMITED, priority 2013, dated 2022).
